Data as given in patent publication US20250026724A1, “(1,4,5-TRISUBSTITUTED 1H-PYRAZOL-3-YL)OXY-2-ALKYLTHIOALKYL ACIDS AND -ALKYL ACID DERIVATIVES, SALTS THEREOF AND USE THEREOF AS ACTIVE HERBICIDAL INGREDIENTS” (BAYER AKTIENGESELLSCHAFT, priority 2021, published 2025).

Key:
Assay type in all cases: in vivo
Setaria viridis (SETVI) = assay: Post-emergence herbicidal action, greenhouse pot trial; details: visual rating after about 3 weeks; for pest or weed control at 320 g/ha: Setaria viridis, 504 h, read-out: Post-emergence effect at 320 g/ha against SETVI in %
Summary of the method: (§1)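 Using WP or EC formulations applied at the one-leaf stage, compounds were sprayed onto weeds at 320 g/ha or lower. Percent activity was estimated visually about three weeks later, with dead plants scored 100% and control-like plants 0%.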

[1] = system: Polygonum convolvulus (POLCO); assay: as above; details: visual rating after about 3 weeks; for pest or weed control at 320 g/ha: read-out: Post-emergence effect at 320 g/ha against POLCO in %
Summary of the method: as §1

Veronica persica (VERPE) = assay: as above; details: visual rating after about 3 weeks; for pest or weed control at 320 g/ha: Veronica persica, 504 h, read-out: Post-emergence effect at 320 g/ha against VERPE in %
Summary of the method: as §1

Viola tricolor (VIOTR) = assay: as above; details: Viola tricolor, 504 h, read-out: Post-emergence effect against VIOTR
Summary of the method: as §1

[2] = system: Pharbitis purpurea (PHBPU); assay: as above; details: Ipomoea purpurea, 504 h, visual rating after about 3 weeks; for pest or weed control at 320 g/ha: read-out: Post-emergence effect at 320 g/ha against PHBPU in %
Summary of the method: as §1

[3] = system: Amaranthus retroflexus (AMARE); assay: as above; details: visual rating after about 3 weeks; for pest or weed control at 80 g/ha / pest or weed control at 320 g/ha: Amaranthus retroflexus, 504 h; for pest or weed control at 80 g/ha: read-out: Post-emergence effect at 80 g/ha against AMARE in %; for pest or weed control at 320 g/ha: read-out: Post-emergence effect at 320 g/ha against AMARE in %
Summary of the method: as §1

[4] = system: Echinochloa crus-galli (ECHCG); assay: as above; details: 320 g/ha, visual rating after about 3 weeks; for pest or weed control at 320 g/ha: Echinochloa crus-galli, 504 h, read-out: Post-emergence effect at 320 g/ha against ECHCG in %
Summary of the method: as §1

[5] = system: Matricaria inodora (MATIN); assay: as above; details: visual rating after about 3 weeks; for pest or weed control at 320 g/ha / pest or weed control at 80 g/ha: Tripleurospermum inodorum, 504 h; for pest or weed control at 320 g/ha: read-out: Post-emergence effect at 320 g/ha against MATIN in %; for pest or weed control at 80 g/ha: read-out: Post-emergence effect at 80 g/ha against MATIN in %
Summary of the method: as §1

[6] = system: Abutilon theophrasti (ABUTH); assay: as above; details: visual rating after about 3 weeks; for pest or weed control at 320 g/ha: read-out: Post-emergence effect at 320 g/ha against ABUTH in %
Summary of the method: as §1

Lolium rigidum (LOLRI) = assay: as above; details: 320 g/ha, visual rating after about 3 weeks
Summary of the method: as §1

[7] = system: Digitaria sanguinalis (DIGSA); assay: as above; details: visual rating after about 3 weeks; for pest or weed control at 320 g/ha: Digitaria sanguinalis, 504 h, read-out: Post-emergence effect at 320 g/ha against DIGSA in %
Summary of the method: as §1

[8] = system: Triticum aestivum (TRZAS); assay: Post-emergence crop plant compatibility, greenhouse pot trial
Protocol: Seeds of monocotyledonous and dicotyledonous weeds and crop plants are placed in sandy loam in plastic or organic planting pots, covered with soil and cultivated in a greenhouse under controlled growth conditions. 2 to 3 weeks after sowing, the trial plants are treated at the one-leaf stage. The compounds of the invention, formulated in the form of wettable powders (WP) or as emulsion concentrates (EC), are then sprayed onto the green parts of the plants as aqueous suspension or emulsion with addition of 0.5% additive at a water application rate equivalent to 600 l/ha. After about 3 weeks of keeping the trial plants in the greenhouse under optimum growth conditions, the effect of the preparations is rated visually in comparison to untreated controls. For example, 100% activity=the plants have died, 0% activity=like control plants.
The observed effects on selected crop plants are reported here in comparison to the untreated controls (values in %). The appendices “a”, “b” and “c” give differentiation by dosage used with otherwise the same useful plants tested.
As shown by results from Tables B1 to B19, inventive compounds of the general formula (I) in the case of post-emergence treatment have good herbicidal efficacy against harmful plants, for example Abutilon theophrasti (ABUTH), Alopecurus myosuroides (ALOMY), Amaranthus retroflexus (AMARE), Avena fatua (AVEFA), Digitaria sanguinalis (DIGSA), Echinochloa crus-galli (ECHCG), Bassia scoparia (KCHSC), Lolium rigidum (LOLRI), Matricaria inodora (MATIN), Pharbitis purpurea (PHBPU), Polygonum convolvulus (POLCO), Setaria viridis (SETVI), Veronica persica (VERPE) and Viola tricolor (VIOTR) at an application rate of 320 g of active substance or less per hectare, and good crop plant compatibility in the case of organisms such as Oryza sativa (ORYSA), Zea mays (ZEAMX), Brassica napus (BRSNW), Glycine max (GLXMA) and Triticum aestivum (TRZAS) at an application rate of 320 g or less per hectare.

Avena fatua (AVEFA) = assay: Post-emergence herbicidal action, greenhouse pot trial; details: 320 g/ha, visual rating after about 3 weeks
Summary of the method: as §1

Bassia scoparia (KCHSC) = assay: as above
Summary of the method: as §1

[9] = system: Alopecurus myosuroides (ALOMY); assay: as above; details: 320 g/ha, visual rating after about 3 weeks
Summary of the method: as §1

[10] = Fallopia convolvulus, 504 h, 320 g/ha
[11] = Abutilon theophrasti, 504 h, 320 g/ha

Row | SMILES | pest or weed control at 320 g/ha (Setaria viridis (SETVI); 320 g/ha) [%] | pest or weed control at 320 g/ha [1, 10] [%] | pest or weed control at 320 g/ha (Veronica persica (VERPE)) [%] | pest or weed control at 20 g/ha (Viola tricolor (VIOTR)) [%] | pest or weed control at 80 g/ha (Viola tricolor (VIOTR)) [%] | pest or weed control at 320 g/ha (Viola tricolor (VIOTR)) [%] | pest or weed control at 320 g/ha [2] [%] | pest or weed control at 80 g/ha ([3]; 80 g/ha) [%] | pest or weed control at 320 g/ha ([3]; 320 g/ha) [%] | pest or weed control at 320 g/ha [4] [%] | pest or weed control at 320 g/ha ([5]; 320 g/ha) [%] | pest or weed control at 320 g/ha [6, 11] [%] | pest or weed control at 320 g/ha ([7]; 320 g/ha) [%] | pest or weed control at 80 g/ha ([5]; 80 g/ha) [%] | other results
1 | COC(=O)C(Oc1nn(-c2cc(F)ccc2F)c(-c2cncc(F)c2)c1C1CC1)SC (stereo not shown) [Example I-08] | 90 | 90 | 90 | 90 | 90 | 90 | 90 | 80 | 80 | 80 | 80 | – | – | – | pest or weed control at 80 g/ha ([1]; Fallopia convolvulus, 504 h, 80 g/ha, read-out: Post-emergence effect at 80 g/ha against POLCO in %): 90%; Post-emergence effect at 80 g/ha against VERPE in % (Veronica persica (VERPE); 80 g/ha): 80%; pest or weed control at 80 g/ha ([2]; 80 g/ha, read-out: Post-emergence effect at 80 g/ha against PHBPU in %): 80%
2 | CCOC(=O)C(Oc1nn(-c2ccccc2F)c(-c2ccc(F)nc2)c1C(F)(F)F)SC (stereo not shown) [Example I-46] | 80 | 80 | 80 | 80 | 80 | 90 | – | 80 | 80 | 90 | 90 | 80 | 80 | – | pest or weed control at 80 g/ha ([6]; Abutilon theophrasti, 504 h, 80 g/ha, read-out: Post-emergence effect at 80 g/ha against ABUTH in %): 80%; pest or weed control at 320 g/ha (Lolium rigidum (LOLRI); Lolium rigidum, 504 h, read-out: Post-emergence effect at 320 g/ha against LOLRI in %): 100%
3 | CCOC(=O)C(Oc1nn(-c2cc(F)ccc2F)c(-c2cncc(F)c2)c1Br)SC (stereo not shown) [Example I-03, ethyl {[4-bromo-1-(2,5-difluorophenyl)-5-(5-fluoropyridin-3-yl)-1H-pyrazol-3-yl]oxy}(methylsulfanyl)acetate] | 90 | – | – | 80 | 90 | 90 | 80 | – | – | 90 | 90 | 80 | 80 | 80 | Post-emergence effect at 80 g/ha against SETVI in % (Setaria viridis (SETVI); 80 g/ha): 80%; Post-emergence effect at 320 g/ha against TRZAS in % ([8]; in vivo): 20%
4 | CSC(Oc1nn(-c2ncccc2F)c(-c2cncc(F)c2)c1C1CC1)C(=O)O (stereo not shown) [Example I-44] | 80 | 80 | 90 | 90 | 90 | 90 | – | 90 | 90 | 90 | 90 | 90 | – | 80 | pest or weed control at 320 g/ha (Avena fatua (AVEFA); Avena fatua, 504 h, read-out: Post-emergence effect at 320 g/ha against AVEFA in %): 90%; pest or weed control at 320 g/ha (Bassia scoparia (KCHSC); Bassia scoparia, 504 h, 320 g/ha, read-out: Post-emergence effect against KCHSC): 90%; Post-emergence effect at 20 g/ha against AMARE in % ([3]; 20 g/ha): 80%
5 | COC(=O)CCOC(=O)C(Oc1nn(-c2ncccc2F)c(-c2ccc(F)nc2)c1Br)SC (racemic) [Example I-32] | – | – | – | – | – | – | – | – | – | – | – | – | – | – | Post-emergence effect at 80 g/ha against ABUTH in % ([6]; 80 g/ha): 80%; Post-emergence effect at 320 g/ha against ABUTH in % ([6]; 320 g/ha): 90%; Post-emergence effect at 320 g/ha against SETVI in % (Setaria viridis (SETVI); 320 g/ha): 80%; Post-emergence effect at 80 g/ha against POLCO in % ([1]; 80 g/ha): 80%; Post-emergence effect at 320 g/ha against POLCO in % ([1]; 320 g/ha): 90%; Post-emergence effect at 320 g/ha against LOLRI in % (Lolium rigidum (LOLRI)): 80%; Post-emergence effect at 320 g/ha against AVEFA in % (Avena fatua (AVEFA)): 90%; Post-emergence effect against KCHSC (Bassia scoparia (KCHSC); 80 g/ha): 80%; Post-emergence effect against KCHSC (Bassia scoparia (KCHSC); 320 g/ha): 90%; Post-emergence effect at 80 g/ha against AMARE in % ([3]; 80 g/ha): 80%; Post-emergence effect at 320 g/ha against AMARE in % ([3]; 320 g/ha): 80%; Post-emergence effect at 320 g/ha against ALOMY in % [9]: 90%; Post-emergence effect at 320 g/ha against ECHCG in % [4]: 90%; Post-emergence effect at 80 g/ha against MATIN in % ([5]; 80 g/ha): 80%; Post-emergence effect at 320 g/ha against MATIN in % ([5]; 320 g/ha): 80%; Post-emergence effect at 80 g/ha against DIGSA in % ([7]; 80 g/ha): 90%; Post-emergence effect at 320 g/ha against DIGSA in % ([7]; 320 g/ha): 90%; Post-emergence effect against TRZAS (crop plant compatibility) ([8]; 20 g/ha, post-emergence, in comparison to untreated controls): 0%
